# Reference: ChEMBL document CHEMBL5036328, “Nonpeptidic, Polo-Box Domain-Targeted Inhibitors of PLK1 Block Kinase Activity, Induce Its Degradation and Target-Resistant Cells” (J Med Chem, 2021)
# pEC50, pIC50: −log10 of the molar value. Calls of active or inactive are those of the source. The rule behind the calls is not given here.
# Columns and labels:
# PC-3 [1] = experiment: Antiproliferative activity against human PC-3 cells assessed as reduction in cell viability incubated for 72 hrs by MTT assay; format: functional, cell-based; details: PC-3, 72 h
# HeLa = experiment: Antiproliferative activity against human HeLa cells assessed as reduction in cell viability incubated for 72 hrs by MTT assay; format: functional, cell-based
# [2] = target: T1, Serine/threonine-protein kinase PLK1 (Homo sapiens, UniProt P53350); experiment: Binding affinity to […] (unknown origin) using MAGPMQS[pT]PLNGAKK tracer peptide as substrate by fluorescence polarization binding assay
# PC-3 [3] = experiment: Induction of cell cycle arrest in human PC-3 cells at 60 uM incubated for 23 hrs in presence of colcemid by flow cytometry analysis; format: functional, cell-based
# HRPE [4] = experiment: Antiproliferative activity against human RPE cells expressing wild type PLK1 assessed as reduction in cell viability upto 120 uM after 72 hrs by MTT assay; format: functional, cell-based
# [5] = target: T1, Serine/threonine-protein kinase PLK1; experiment: Binding affinity to PLK1 in human PC-3 cells incubated for 2 hrs followed by heat shock for 10 mins by cellular thermal shift assay; format: cell-based
# HRPE [6] = experiment: Antiproliferative activity against human RPE cells expressing C67V mutant PLK1 assessed as reduction in cell viability upto 120 uM after 72 hrs by MTT assay; format: functional, cell-based
# [7] = target: T1, Serine/threonine-protein kinase PLK1; experiment: Induction of PLK1 degradation in human PC-3 cells upto 60 uM measured after 23 hrs by Western blot analysis; format: cell-based; details: dose microM <=60, time 23.0 hrs
# [8] = target: T1, Serine/threonine-protein kinase PLK1; experiment: Inhibition of PLK1 in human PC-3 cells assessed as reduction in phosphorylation of TCTP at ser46 measured after 23 hrs in presence of colcemid by immunoblotting analysis; format: cell-based
# HRPE [9] = experiment: Antiproliferative activity against human RPE cells expressing wild-type PLK1 assessed as reduction in cell viability after 72 hrs by MTT assay; format: functional, cell-based
# HRPE [10] = experiment: Antiproliferative activity against human RPE cells expressing C67V mutant PLK1 assessed as reduction in cell viability after 72 hrs by MTT assay; format: functional, cell-based
# [11] = target: T1, Serine/threonine-protein kinase PLK1; experiment: Induction of PLK1 degradation in human PC-3 cells at 10 uM measured for 23 hrs by Western blot analysis relative to control; format: cell-based
# [12] = target: T1, Serine/threonine-protein kinase PLK1; experiment: Induction of PLK1 degradation in human DU-145 cells measured for 23 hrs by Western blot analysis; format: cell-based; details: dose 10-45 µM
# [13] = target: T1, Serine/threonine-protein kinase PLK1; experiment: Induction of PLK1 degradation in human PC-3 cells at 30 uM pretreated with proteosome inhibitor MG132 for 1 hr followed by compound addition and measured after 23 hrs by Western blot analysis relative to control; format: cell-based; set-up: scale not given: the % may be the effect or the level left
# PC-3 [14] = experiment: Induction of cell cycle arrest in human PC-3 cells assessed as reduction in G2/M phase at 45 uM incubated for 23 hrs in presence of colcemid by flow cytometry analysis (reference value: 67%); format: functional; set-up: scale not given: the % may be the effect or the level left
# [15] = target: T1, Serine/threonine-protein kinase PLK1; experiment: Induction of PLK1 degradation in human PC-3 cells at 45 uM measured for 23 hrs by Western blot analysis relative to control; format: cell-based
# [16] = target: T1, Serine/threonine-protein kinase PLK1; experiment: Induction of PLK1 degradation in human PC-3 cells at 45 uM pretreated with proteosome inhibitor MG132 for 1 hr followed by compound addition and measured after 23 hrs by Western blot analysis relative to control; format: cell-based; set-up: scale not given: the % may be the effect or the level left
# [17] = target: T1, Serine/threonine-protein kinase PLK1; experiment: Induction of PLK1 degradation in human PC-3 cells measured for 23 hrs by Western blot analysis; format: cell-based
# [18] = target: T1, Serine/threonine-protein kinase PLK1; experiment: Induction of PLK1 degradation in human PC-3 cells measured after 23 hrs in presence of colcemid by Western blot analysis; format: cell-based; details: dose 10-45 µM
# PC-3 [19] = experiment: Induction of cell cycle arrest in human PC-3 cells at 10 to 45 uM incubated for 23 hrs by flow cytometry analysis; format: functional, cell-based; details: dose 10-45 µM
# [20] = target: T1, Serine/threonine-protein kinase PLK1; experiment: Induction of PLK1 degradation in human PC-3 cells at 10 uM pretreated with proteosome inhibitor MG132 for 1 hr followed by compound addition and measured after 23 hrs by Western blot analysis relative to control; format: cell-based; set-up: scale not given: the % may be the effect or the level left
# [21] = target: T1, Serine/threonine-protein kinase PLK1; experiment: Induction of PLK1 degradation in human PC-3 cells at 30 uM measured for 23 hrs by Western blot analysis relative to control; format: cell-based
# [22] = target: T1, Serine/threonine-protein kinase PLK1; experiment: Inhibition of PLK1 in human PC-3 cells assessed as reduction in phosphorylation of TCTP at ser46 measured after 23 hrs by immunoblotting analysis; format: cell-based
# T1 sequence (P53350 whole entry): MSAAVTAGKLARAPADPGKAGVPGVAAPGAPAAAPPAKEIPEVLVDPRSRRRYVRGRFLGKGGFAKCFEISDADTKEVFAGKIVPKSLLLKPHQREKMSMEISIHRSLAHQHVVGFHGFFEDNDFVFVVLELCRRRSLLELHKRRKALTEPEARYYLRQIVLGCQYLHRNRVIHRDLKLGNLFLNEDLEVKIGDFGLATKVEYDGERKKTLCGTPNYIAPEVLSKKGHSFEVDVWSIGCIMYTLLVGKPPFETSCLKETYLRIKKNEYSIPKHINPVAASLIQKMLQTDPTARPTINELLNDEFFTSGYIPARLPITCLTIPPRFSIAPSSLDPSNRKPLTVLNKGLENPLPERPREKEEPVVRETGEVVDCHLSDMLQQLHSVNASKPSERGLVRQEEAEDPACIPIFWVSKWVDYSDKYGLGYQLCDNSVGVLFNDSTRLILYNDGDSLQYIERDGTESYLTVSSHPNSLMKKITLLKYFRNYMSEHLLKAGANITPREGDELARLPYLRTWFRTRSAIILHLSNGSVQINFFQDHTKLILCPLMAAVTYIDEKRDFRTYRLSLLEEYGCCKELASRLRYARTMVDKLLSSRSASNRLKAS
smiles,measurement,setting,value
CCCCCCCCCc1ccc(C(=O)Nc2ccc(C)cc2C(=O)O)cc1,pIC50,PC-3 [1],4.52
same,pIC50,HeLa,4.67
same,pIC50,[2],4.47
CCCCCCCSc1ccc(C(=O)Nc2ccccc2C(=O)O)cc1,pIC50,PC-3 [1],4.56
same,pIC50,[2],4.54
CCCCCCCCOc1ccc(C(=O)Nc2cc(C)ccc2C(=O)O)cc1,pIC50,HeLa,4.71
same,pIC50,[2],4.53
CCCCCCCOc1ccc(C(=O)Nc2ccccc2C(=O)O)cc1,pIC50,PC-3 [1],4.52
same,pIC50,[2],4.43
CCCCCCCCOc1ccc(C(=O)Nc2ccc(C)cc2C(=O)O)cc1,pIC50,PC-3 [1],4.66
same,pIC50,[2],4.54
Cc1ccc(C(=O)O)c(NC(=O)c2ccc(N)cc2)c1,pIC50,PC-3 [1],< 3.92
same,pIC50,HeLa,< 3.92
same,pIC50,[2],< 3.22
CCCCCCCCCc1ccc(C(=O)Nc2cc(C)ccc2C(=O)OC)cc1,pIC50,PC-3 [1],< 3.92
same,Activity,PC-3 [3],inactive
same,pIC50,HeLa,< 3.92
same,Activity,HRPE [4],inactive
same,Activity,[5]; time 130.0 min,inactive
same,Activity,HRPE [6],inactive
same,Activity,[7],inactive
same,inhibition,[8],inactive
same,pIC50,[2],< 3.22
CCCCCCCCCCc1ccc(C(=O)Nc2ccc(C)cc2C(=O)O)cc1,pIC50,PC-3 [1],4.64
same,pIC50,HeLa,4.81
same,pIC50,[2],4.62
CCCCCCCSc1ccc(C(=O)Nc2ccc(C)cc2C(=O)O)cc1,pIC50,PC-3 [1],4.84
same,pIC50,HeLa,5.03
same,Activity,HRPE [9],Active
same,Activity,HRPE [10],Active
same,pIC50,[2],4.63
CCCCCCCCCCCCc1ccc(C(=O)Nc2ccc(C)cc2C(=O)O)cc1,pIC50,PC-3 [1],4.78
same,pIC50,HeLa,4.97
same,Activity,HRPE [9],Active
same,Activity,HRPE [10],Active
same,pIC50,[2],4.58
CCCCCCCCNc1ccc(C(=O)Nc2ccc(C)cc2C(=O)O)cc1,pIC50,PC-3 [1],4.44
same,pIC50,[2],4.14
CCCCCCCNc1ccc(C(=O)Nc2ccc(C)cc2C(=O)O)cc1,pIC50,PC-3 [1],4.50
same,pIC50,HeLa,4.73
same,pIC50,[2],4.38
CCCCCCCCCCCCc1ccc(C(=O)Nc2cc(C)ccc2C(=O)O)cc1,pIC50,PC-3 [1],4.77
same,pIC50,[2],4.59
CCCCCCCOc1ccc(C(=O)Nc2ccc(C)cc2C(=O)O)cc1,pIC50,PC-3 [1],4.37
same,pIC50,HeLa,4.50
same,pIC50,[2],4.46
CCCCCCCCCc1ccc(C(=O)Nc2cc(C)ccc2C(=O)O)cc1,pIC50,PC-3 [1],4.74
same,pIC50,[2],4.55
CCCCCCCCc1ccc(C(=O)Nc2ccc(C(F)(F)F)cc2C(=O)O)cc1,pIC50,PC-3 [1],4.85
same,pIC50,HeLa,4.98
CCCCCCCCCc1ccc(C(=O)Nc2ccc(C)cc2C(=O)OC)cc1,pIC50,[2],< 3.22
CCCCCCCCSc1ccc(C(=O)Nc2ccc(C)cc2C(=O)O)cc1,pIC50,PC-3 [1],4.82
same,Activity,[11],30%
same,pIC50,HeLa,4.92
same,Activity,[12],Dose-Dependent Effect
same,Activity,[13],25%
same,Activity,PC-3 [14],20%
same,pEC50,[5],6.19
same,Activity,[15],7%
same,Activity,[16],16%
same,Activity,[17],Dose-Dependent Effect
same,Activity,[18],Dose-Dependent Effect
same,inhibition,[8],Active
same,Activity,PC-3 [19],inactive
same,Activity,[20],64%
same,Activity,[21],5%
same,pIC50,[2],4.57
same,inhibition,[22],Active
CCCCCCCCSc1ccc(C(=O)Nc2cc(C)ccc2C(=O)O)cc1,pIC50,PC-3 [1],4.59
same,pIC50,[2],4.55
CCCCCCCNc1ccc(C(=O)Nc2ccccc2C(=O)O)cc1,pIC50,PC-3 [1],4.38
same,pIC50,[2],4.06
CCCCCCCCNc1ccc(C(=O)Nc2cc(C)ccc2C(=O)O)cc1,pIC50,PC-3 [1],4.70
same,pIC50,[2],4.57
